Source: patent US9650616B2, “Methods for increasing grain yield” (University of Florida Research Foundation, Inc., priority 2014, dated 2017)
Residue numbers refer to the chain shown, from its start. Like-named read-outs stand apart in the source and are kept apart here.

Tests used:
[1] = molecular target: T1, maize endosperm AGPase, large subunit variant GGR (Q96G, D161G, A443R; numbering of SEQ ID NO: 20) (Zea mays, UniProt P55241+Q84PF5, A443R/D161G/Q96G); assay: Apparent kinetic constants with 3-PGA, 37° C., GGR; type: biochemical; conditions: read-out: ATP Km
T1 sequence (P55241 46-516 A443R/D161G/Q96G): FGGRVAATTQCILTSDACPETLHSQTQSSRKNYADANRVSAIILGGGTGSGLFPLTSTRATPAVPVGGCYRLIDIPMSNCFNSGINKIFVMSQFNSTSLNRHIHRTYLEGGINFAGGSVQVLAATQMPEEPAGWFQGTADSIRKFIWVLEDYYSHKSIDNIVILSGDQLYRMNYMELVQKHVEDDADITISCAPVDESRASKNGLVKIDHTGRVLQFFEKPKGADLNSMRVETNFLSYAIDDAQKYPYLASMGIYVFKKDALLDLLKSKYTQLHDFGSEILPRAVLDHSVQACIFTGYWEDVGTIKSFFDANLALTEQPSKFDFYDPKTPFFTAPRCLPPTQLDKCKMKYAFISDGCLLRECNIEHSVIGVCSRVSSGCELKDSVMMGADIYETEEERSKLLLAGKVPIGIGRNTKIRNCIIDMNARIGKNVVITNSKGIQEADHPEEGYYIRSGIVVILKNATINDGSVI
T1 sequence (Q84PF5 1-474): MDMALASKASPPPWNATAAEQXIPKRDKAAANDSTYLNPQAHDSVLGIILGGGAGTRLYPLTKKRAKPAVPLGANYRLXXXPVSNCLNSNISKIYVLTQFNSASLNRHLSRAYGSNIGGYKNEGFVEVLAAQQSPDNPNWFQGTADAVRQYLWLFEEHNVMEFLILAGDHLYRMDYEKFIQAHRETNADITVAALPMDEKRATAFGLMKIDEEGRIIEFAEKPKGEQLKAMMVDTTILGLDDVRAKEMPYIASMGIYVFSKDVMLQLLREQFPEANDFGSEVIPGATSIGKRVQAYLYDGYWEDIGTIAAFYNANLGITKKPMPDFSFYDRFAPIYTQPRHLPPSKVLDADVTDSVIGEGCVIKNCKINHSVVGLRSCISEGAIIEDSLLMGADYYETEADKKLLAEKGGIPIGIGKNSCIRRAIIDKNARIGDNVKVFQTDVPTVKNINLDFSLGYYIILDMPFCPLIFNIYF
Source text: The small and large subunit plasmids of maize endosperm AGPase (pMONcBt2 and pMONcSh2, respectively) (Giroux et al., 1996) were expressed in E. coli AC70R1-504 cells (Iglesias et al., 1993) as previously described (Boehlein et al., 2008).
(§1) An endpoint assay was used to determine the rate of the AGPase reaction by coupling the formation of PPi to a decrease in NADH concentration (Boehlein et al., 2008). […] The Michaelis constants (Km) were obtained by varying one substrate in the presence of saturating concentrations of the second substrate. The activation constants were obtained by varying the activator at fixed levels of both substrates. All reactions were performed at 37° C. and mixes were prewarmed before starting the reaction with enzyme. […] The absorbance at 340 nm was monitored after 30 min and the amount of PPi produced was determined from a standard curve using PPi in complete reaction mixtures lacking AGPase. Blank samples contained complete reaction mixtures without enzyme and the change in absorbance between the blank and the reaction was used to calculate the amount of PPi produced. […]
(§2) The apparent Michaelis constant and maximum velocity of each reaction was calculated from a V vs. S plots using nonlinear regression analysis and the following equation, v=VmaxS/(Km+S), where v is the measured velocity, Vmax is the maximum velocity, S is the substrate concentration. […]

[2] = molecular target: T2, maize endosperm AGPase variant T142F (Zea mays, UniProt P55241+Q84PF5, T142F); conditions: cited from earlier work
T2 construct: data of Boehlein et al., 2013
T2 sequence (P55241 46-516 T142F): T1 sequence (P55241 46-516 A443R/D161G/Q96G) with G51Q, T97F, G116D, R398A
T2 sequence (Q84PF5 1-474): T1 sequence (Q84PF5 1-474)

[3] = molecular target: T2, maize endosperm AGPase variant T142F; assay: Apparent kinetic constants with 3-PGA, 37° C., T142F; type: biochemical; conditions: read-out: ATP Km, with 3-PGA, 37° C.
Description: as §1, §2
Each mutant, comprising 1, 2, 3 or 4 changes, was grown in a large scale culture, expressed and purified according to standard procedures (Boehlein et al., 2005). […] Next, the activation constant, Ka, was determined for each of the mutant enzymes. […]

Nc1ncnc2c1ncn2[C@@H]1O[C@H](COP(=O)(O)OP(=O)(O)OP(=O)(O)O)[C@@H](O)[C@H]1O [ATP]
Km [1]: 57 µM | kcat ([2]; absence of 3-PGA): 53.8 s⁻¹ | Km ([2]; read-out: ATP Km, absence of 3-PGA): 1730 µM | Kd ([2]; read-out: Kia (dissociation constant for the E-ATP complex), absence of 3-PGA): 1.5 mM | Km [3]: 200 µM
